Where two headings read alike, the source gives them in different places. Peptide text beside a SMILES is read from it. * marks the point of attachment. Tos = Cc1ccc(S(=O)(=O)*)cc1

The assay deals with T1, μ-calpain (Homo sapiens, UniProt P07384).
T1 construct: purchased Nakalai Tesque
T1 sequence (P07384 1-714): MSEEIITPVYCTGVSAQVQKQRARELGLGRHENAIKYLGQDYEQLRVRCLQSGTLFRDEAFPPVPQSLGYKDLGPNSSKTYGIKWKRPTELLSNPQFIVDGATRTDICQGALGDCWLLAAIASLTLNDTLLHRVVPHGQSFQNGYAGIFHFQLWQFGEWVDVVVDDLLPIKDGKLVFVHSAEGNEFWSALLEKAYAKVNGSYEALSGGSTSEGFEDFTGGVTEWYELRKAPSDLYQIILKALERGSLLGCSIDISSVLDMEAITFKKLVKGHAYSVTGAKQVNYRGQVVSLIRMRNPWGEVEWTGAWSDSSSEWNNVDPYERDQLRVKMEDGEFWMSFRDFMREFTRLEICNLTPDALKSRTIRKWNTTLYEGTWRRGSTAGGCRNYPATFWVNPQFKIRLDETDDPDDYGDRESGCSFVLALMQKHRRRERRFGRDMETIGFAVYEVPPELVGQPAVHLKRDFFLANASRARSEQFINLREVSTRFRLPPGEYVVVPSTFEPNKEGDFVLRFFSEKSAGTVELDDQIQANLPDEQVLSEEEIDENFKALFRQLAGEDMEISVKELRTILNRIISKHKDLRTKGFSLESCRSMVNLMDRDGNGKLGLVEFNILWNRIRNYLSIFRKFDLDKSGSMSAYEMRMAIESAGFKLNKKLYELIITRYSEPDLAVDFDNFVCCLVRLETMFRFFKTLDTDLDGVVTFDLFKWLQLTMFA
T1 sequence (P04632 1-268 partner): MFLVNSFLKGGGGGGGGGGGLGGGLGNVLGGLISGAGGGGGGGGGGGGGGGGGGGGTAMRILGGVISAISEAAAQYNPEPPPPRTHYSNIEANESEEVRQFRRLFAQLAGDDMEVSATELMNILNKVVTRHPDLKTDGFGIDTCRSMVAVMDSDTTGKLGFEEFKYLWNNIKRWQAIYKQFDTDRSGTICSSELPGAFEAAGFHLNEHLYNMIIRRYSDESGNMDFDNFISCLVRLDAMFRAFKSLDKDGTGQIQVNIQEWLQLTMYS
As to the kind of experiment: μ-Calpain-inhibitory activity (casein substrate). The format is biochemical. As to conditions: 60 minutes at 30° C., pH 7.4, 4 mM calcium chloride. The procedure: Thus, to a solution containing 0.5 mg/ml casein, 50 mM Tris-HCl (pH 7.4), 20 mM dithiothreitol, and 4 mM calcium chloride was added 2.5 μl of a dimethyl sulfoxide solution containing a varying concentration of the test drug as well as 0.03 unit of μcalpain to initiate the reaction. The final liquid volume was 250 μl. After 60 minutes of reaction at 30° C., 100 μl of the reaction mixture was transferred to another vessel, to which 50 μl of purified water and 100 μl of 50% Coumassie brilliant blue solution were added. […] As a control, 2.5 μl of dimethyl sulfoxide not containing the test drug was added and the mixture was treated in the same manner as above. […] Similarly, the value found by adding 0.2 mM EDTA in lieu of 4 mM aqueous calcium chloride solution was used as the blank value. […] [formula]

Where [1] appears, read: read-out: Calpain 50% inhibitory concentration (IC50).

As to `CCOC(=O)[C@H]1O[C@@H]1C(=O)N[C@@H](CC(C)C)C(=O)N1CCN(c2ccc(F)cc2)CC1` [Compound 3, ethyl (2s,3s)-3-[[[[(1s)-1-[[4-(4-fluorophenyl)-1-piperazinyl]carbonyl]-3-methyl]butyl]amino]carbonyl]oxiranecarboxylate], the IC50 under setting [1] is 47 µM.

As for `CC(C)C[C@H](NC(=O)[C@H]1O[C@@H]1C(=O)O)C(=O)N1CCN(c2ccccc2)CC1` [Compound 14, (2s,3s)-3-[[[[(1s)-1-[(4-phenyl-1-piperazinyl)carbonyl]-3-methyl]butyl]amino]carbonyl]oxiranecarboxylic acid], the IC50 was 0.78 µM.

For `CC(C)C[C@H](NC(=O)[C@H]1O[C@@H]1C(=O)O)C(=O)N1CCN(S(=O)(=O)N(C)C)CC1` [Compound 15, (2s,3s)-3-[[[[(1s)-1-[(4-dimethylsulfamoyl-1-piperazinyl)carbonyl]-3-methyl]butyl]amino]carbonyl]oxiranecarboxylic acid], the IC50 was determined as 1.1 µM.

Consider `CC(C)C[C@H](NC(=O)[C@H]1O[C@@H]1C(=O)O)C(=O)N1CCN(c2cccc(Cl)c2)CC1` [Compound 18, (2s,3s)-3-[[[[(1s)-1-[[4-(3-chlorophenyl)-1-piperazinyl]carbonyl]-3-methyl]butyl]amino]carbonyl]oxiranecarboxylic acid], for which the IC50 was determined as 0.63 µM.

Turning to `CC(C)C[C@H](NC(=O)[C@H]1O[C@@H]1C(=O)O)C(=O)N1CCN(c2ccc(Cl)cc2)CC1` [Compound 19, (2s,3s)-3-[[[[(1s)-1-[[4-(4-chlorophenyl)-1-piperazinyl]carbonyl]-3-methyl]butyl]amino]carbonyl]oxiranecarboxylic acid], the IC50 was determined as 0.49 µM.

For `COc1ccc(N2CCN(C(=O)[C@H](CC(C)C)NC(=O)[C@H]3O[C@@H]3C(=O)O)CC2)cc1` [Compound 20, (2s,3s)-3-[[[[(1s)-1-[[4-(4-methoxyphenyl)-1-piperazinyl]carbonyl]-3-methyl]butyl]amino]carbonyl]oxiranecarboxylic acid], the IC50 under setting [1] was 1.2 µM.

As for `CC(C)[C@H](NC(=O)[C@H]1O[C@@H]1C(=O)O)C(=O)N1CCN(c2ccccc2Cl)CC1` [Compound 21, (2s,3s)-3-[[[[(1s)-1-[[4-(2-chlorophenyl)-1-piperazinyl]carbonyl]-2-methyl]propyl]amino]carbonyl]oxiranecarboxylic acid], the IC50 is 0.95 µM.

Regarding `C[C@H](NC(=O)[C@H]1O[C@@H]1C(=O)O)C(=O)N1CCN(c2ccccc2Cl)CC1` [Compound 23, (2s,3s)-3-[[[(1s)-1-[[4-(2-chlorophenyl)-1-piperazinyl]carbonyl]ethyl]amino]carbonyl]oxiranecarboxylic acid], the IC50 was found to be 5.1 µM.

As to `O=C(O)[C@H]1O[C@@H]1C(=O)NCCC(=O)N1CCN(c2ccccc2Cl)CC1` [Compound 25, (2s,3s)-3-[[[2-[[4-(2-chlorophenyl)-1-piperazinyl]carbonyl]ethyl]amino]carbonyl]oxiranecarboxylic acid], the IC50 amounted to 41 µM.

On to `O=C(O)[C@H]1O[C@@H]1C(=O)N1CCC[C@H]1C(=O)N1CCN(c2ccccc2Cl)CC1` [Compound 27, (2s,3s)-3-[[(2s)-2-[[4-(2-chloro-phenyl)-1-piperazinyl]carbonyl]-1-pyrrolidinyl]carbonyl]oxiranecarboxylic acid], for which the IC50 was 2400 µM.

`CC(=O)NCSC[C@@H](NC(=O)[C@H]1O[C@@H]1C(=O)O)C(=O)N1CCN(c2ccccc2Cl)CC1` [Compound 28, (2s,3s)-3-[[[[(1s)1-[[4-(2-chlorophenyl)-1-piperazinyl]carbonyl]-2-acetylaminomethylthio]-ethyl]amino]carbonyl]oxiranecarboxylic acid]: the IC50 under setting [1] came to 3.9 µM.

Consider `CSCC[C@H](NC(=O)[C@H]1O[C@@H]1C(=O)O)C(=O)N1CCN(c2ccccc2Cl)CC1` [Compound 29, (2s,3s)-3-[[[[(1s)-1-[[4-(2-chlorophenyl)-1-piperazinyl]carbonyl]-3-methylthio]propyl]amino]carbonyl]oxiranecarboxylic acid], for which the IC50 is 0.6 µM.

In the case of `NC(=O)CC[C@H](NC(=O)[C@H]1O[C@@H]1C(=O)O)C(=O)N1CCN(c2ccccc2Cl)CC1` [Compound 30, (2s,3s)-3-[[[[(1s)-1-[[4-(2-chlorophenyl)-1-piperazinyl]carbonyl]-3-carbamoyl]propyl]amino]carbonyl]oxiranecarboxylic acid], the IC50 was found to be 6 µM.

For the compound `O=C(O)[C@H]1O[C@@H]1C(=O)NC1(C(=O)N2CCN(c3ccc(F)cc3)CC2)CCCC1` [Compound 31, (2s,3s)-3-[[[(1s)-1-[[4-(4-fluorophenyl)-1-piperazinyl]carbonyl]-1-cyclopentyl]amino]carbonyl]oxiranecarboxylic acid], the IC50 is 150 µM.

As for `Cc1ccc(S(=O)(=O)N2CCN(C(=O)[C@H](CC(C)C)NC(=O)[C@H]3O[C@@H]3C(=O)NO)CC2)cc1` [Compound 33, (2s,3s)-3-[[[[(1s)-1-[[4-(4-methylphenylsulfonyl)-1-piperazinyl]carbonyl]-3-methyl]butyl]amino]carbonyl]oxiranecarbohydroxamic acid], the IC50 came to 1.9 µM.

Consider `CC(C)C[C@@H](C=O)NC(=O)[C@@H](NS(=O)(=O)c1ccc2ccccc2c1)C(C)C` [Compound 34, N-(2-naphthalenesulfonyl)-L-valyl-L-leucinal], for which the IC50 is 0.01 µM.

On to `CC(C)C[C@@H](C=O)NC(=O)[C@@H](NS(=O)(=O)c1ccc(Cl)cc1)C(C)C` [Compound 36, N-(4-chlorophenylsulfonyl)-L-valyl-L-leucinal], for which the IC50 worked out at 0.031 µM.

For the compound `Cc1ccc(S(=O)(=O)N[C@H](C(=O)N[C@H](C=O)CC(C)C)C(C)C)cc1` [Compound 37, N-(4-methylphenylsulfonyl)-L-valyl-L-leucinal] (Tos-Val-Leu-aldehyde), the IC50 was 0.028 µM.

As for `CC(C)C[C@@H](C=O)NC(=O)[C@@H](NS(=O)(=O)c1ccc2ccccc2c1)C(C)(C)C` [Compound 38, N-(2-naphthalenesulfonyl)-L-tert-leucyl-L-leucinal], the IC50 turned out to be 6.1 µM.

Turning to `CCCC[C@H](NS(=O)(=O)c1ccc(F)cc1)C(=O)N[C@H](C=O)CC(C)C` [Compound 40, N-(4-fluorophenylsulfonyl)-L-norleucyl-L-leucinal], the IC50 is 0.26 µM.

Turning to `CCC[C@H](NS(=O)(=O)c1ccc(F)cc1)C(=O)N[C@H](C=O)CC(C)C` [Compound 41, N-(4-fluorophenylsulfonyl)-L-norvalyl-L-leucinal], the IC50 is 0.13 µM.

`CC(C)(C)[C@H](NS(=O)(=O)c1ccc2ccccc2c1)C(=O)N[C@H](C=O)Cc1ccccc1` [Compound 42, N-(2-naphthalenesulfonyl)-L-tert-leucyl-L-phenylalaninal]: the IC50 was found to be 3.2 µM.

`CC(C)[C@H](NS(=O)(=O)c1ccc(F)cc1)C(=O)N[C@H](C=O)Cc1ccccc1` [Compound 43, N-(4-fluorophenylsulfonyl)-L-valyl-L-phenylalaninal]: the IC50 came out at 0.027 µM.

Take `CC(C)[C@H](NS(=O)(=O)c1ccc2ccccc2c1)C(=O)N[C@H](C=O)Cc1ccccc1` [Compound 44, N-(2-naphthalenesulfonyl)-L-valyl-L-phenylalaninal]: the IC50 was determined as 0.014 µM.

`CC(C)[C@H](NS(=O)(=O)c1ccc(Cl)cc1)C(=O)N[C@H](C=O)Cc1ccccc1` [Compound 45, N-(4-chlorophenylsulfonyl)-L-valyl-L-phenylalaninal]: the IC50 is 0.014 µM.

As for `Cc1ccc(S(=O)(=O)N[C@H](C(=O)N[C@H](C=O)Cc2ccccc2)C(C)C)cc1` [Compound 46, N-(4-methylphenylsulfonyl)-L-valyl-L-phenylalaninal] (Tos-Val-Phe-aldehyde), the IC50 came to 0.018 µM.

For the compound `O=C[C@H](Cc1ccccc1)NC(=O)C1(NS(=O)(=O)c2ccc3ccccc3c2)CCCCC1` [Compound 47], the IC50 is 0.2 µM.

Regarding `CC(C)[C@H](NS(=O)(=O)c1ccc(Cl)cc1)C(=O)N[C@H](C=O)Cc1c[nH]c2ccccc12` [Compound 48, N-(4-chlorophenylsulfonyl)-L-valyl-L-tryptophanal], the IC50 is 0.013 µM.

Values taken from US6551999B1, “Angiogenesis inhibitor” (Senju Pharmaceutical Co., Ltd., priority 1995, dated 2003).
